{"source": "ChEMBL document CHEMBL1201862", "about": "“PubChem BioAssay data set” (2004)", "test_in_all_cases": "NCI tumour cell line growth inhibition, 48 h", "key": {"786-0": {"system": "786-0"}, "A498": {"system": "A498"}, "A549": {"system": "A549"}, "ACHN": {"system": "ACHN"}, "BT-549": {"system": "BT-549"}, "CAKI-1": {"system": "CAKI-1"}, "CCRF-CEM": {"system": "CCRF-CEM"}, "COLO 205": {"system": "COLO 205"}, "DU-145": {"system": "DU-145"}, "EKVX": {"system": "EKVX"}, "HCT-116": {"system": "HCT-116"}, "HCT-15": {"system": "HCT-15"}, "HL-60": {"system": "HL-60"}, "HOP-62": {"system": "HOP-62"}, "HOP-92": {"system": "HOP-92"}, "HT-29": {"system": "HT-29"}, "Hs-578T": {"system": "Hs-578T"}, "IGROV-1": {"system": "IGROV-1"}, "K562": {"system": "K562"}, "KM12": {"system": "KM12"}, "LOX IMVI": {"system": "LOX IMVI"}, "M14": {"system": "M14"}, "MCF7": {"system": "MCF7"}, "MDA-MB-231": {"system": "MDA-MB-231"}, "MDA-MB-435": {"system": "MDA-MB-435"}, "MDA-N": {"system": "MDA-N"}, "MOLT-4": {"system": "MOLT-4"}, "Malme-3M": {"system": "Malme-3M"}, "NCI-H226": {"system": "NCI-H226"}, "NCI-H23": {"system": "NCI-H23"}, "NCI-H460": {"system": "NCI-H460"}, "NCI-H522": {"system": "NCI-H522"}, "NCI/ADR-RES": {"system": "NCI/ADR-RES"}, "OVCAR-3": {"system": "OVCAR-3"}, "OVCAR-4": {"system": "OVCAR-4"}, "OVCAR-5": {"system": "OVCAR-5"}, "OVCAR-8": {"system": "OVCAR-8"}, "PC-3": {"system": "PC-3"}, "RXF 393": {"system": "RXF 393"}, "SF-268": {"system": "SF-268"}, "SF-295": {"system": "SF-295"}, "SK-MEL-28": {"system": "SK-MEL-28"}, "SK-MEL-5": {"system": "SK-MEL-5"}, "SK-OV-3": {"system": "SK-OV-3"}, "SN12C": {"system": "SN12C"}, "SNB-19": {"system": "SNB-19"}, "SNB-75": {"system": "SNB-75"}, "SR": {"system": "SR"}, "SW-620": {"system": "SW-620"}, "T47D": {"system": "T47D"}, "TK-10": {"system": "TK-10"}, "U-251": {"system": "U-251"}, "UACC-257": {"system": "UACC-257"}, "UACC-62": {"system": "UACC-62"}, "UO-31": {"system": "UO-31"}}, "note": "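Growth conditions: 96-well plates. Treatment: test compound, 48 hours, 5 concentrations. Analysis: linear interpolation between bracketing concentrations; unreached endpoints set to highest concentration. At the GI50, growth is halved.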 The source made the active and inactive calls. Cut-off read from the data, not from the text of the source: active = GI50 up to about 1.1 µM and inactive = higher.", "data": [{"molecule": "COC(=O)[C@H](Cc1ccccc1)NC(=O)[C@H](Cc1ccccc1)NC(=O)[C@@H]1CCCN1C(=O)N[C@H]1C2C=CC(C2)C1C(=O)N1CCC[C@H]1C(=O)N[C@@H](C)C(=O)N[C@H](C(=O)OC)C(C)C", "note": "(stereo not given in full)", "values": [{"measurement": "GI50", "setting": "786-0", "result": "> 100 µM (inactive)"}, {"measurement": "GI50", "setting": "A498", "result": "> 100 µM (inactive)"}, {"measurement": "GI50", "setting": "A549", "result": "> 100 µM (inactive)"}, {"measurement": "GI50", "setting": "ACHN", "result": "> 100 µM (inactive)"}, {"measurement": "GI50", "setting": "BT-549", "result": "40.9 µM (inactive)"}, {"measurement": "GI50", "setting": "CAKI-1", "result": "> 100 µM (inactive)"}, {"measurement": "GI50", "setting": "CCRF-CEM", "result": "22.5 µM (inactive)"}, {"measurement": "GI50", "setting": "COLO 205", "result": "> 100 µM (inactive)"}, {"measurement": "GI50", "setting": "DU-145", "result": "> 100 µM (inactive)"}, {"measurement": "GI50", "setting": "EKVX", "result": "> 100 µM (inactive)"}, {"measurement": "GI50", "setting": "HCT-116", "result": "> 100 µM (inactive)"}, {"measurement": "GI50", "setting": "HCT-15", "result": "> 100", "unit": "µM"}, {"measurement": "GI50", "setting": "HL-60", "result": "35.7 µM (inactive)"}, {"measurement": "GI50", "setting": "HOP-62", "result": "> 100 µM (inactive)"}, {"measurement": "GI50", "setting": "HOP-92", "result": "73.1 µM (inactive)"}, {"measurement": "GI50", "setting": "HT-29", "result": "> 100 µM (inactive)"}, {"measurement": "GI50", "setting": "Hs-578T", "result": "59.6 µM (inactive)"}, {"measurement": "GI50", "setting": "IGROV-1", "result": "38 µM (inactive)"}, {"measurement": "GI50", "setting": "K562", "result": "33.9 µM (inactive)"}, {"measurement": "GI50", "setting": "KM12", "result": "> 100 µM (inactive)"}, {"measurement": "GI50", "setting": "LOX IMVI", "result": "41.3 µM (inactive)"}, {"measurement": "GI50", "setting": "M14", "result": "> 100 µM (inactive)"}, {"measurement": "GI50", "setting": "MCF7", "result": "56.9 µM (inactive)"}, {"measurement": "GI50", "setting": "MDA-MB-231", "result": "46.5 µM (inactive)"}, {"measurement": "GI50", "setting": "MDA-MB-435", "result": "> 100 µM (inactive)"}, {"measurement": "GI50", "setting": "MDA-N", "result": "> 100 µM (inactive)"}, {"measurement": "GI50", "setting": "MOLT-4", "result": "29.4 µM (inactive)"}, {"measurement": "GI50", "setting": "Malme-3M", "result": "> 100 µM (inactive)"}, {"measurement": "GI50", "setting": "NCI-H226", "result": "> 100 µM (inactive)"}, {"measurement": "GI50", "setting": "NCI-H23", "result": "> 100 µM (inactive)"}, {"measurement": "GI50", "setting": "NCI-H460", "result": "> 100 µM (inactive)"}, {"measurement": "GI50", "setting": "NCI-H522", "result": "56.5 µM (inactive)"}, {"measurement": "GI50", "setting": "NCI/ADR-RES", "result": "> 100 µM (inactive)"}, {"measurement": "GI50", "setting": "OVCAR-3", "result": "> 100 µM (inactive)"}, {"measurement": "GI50", "setting": "OVCAR-4", "result": "> 100 µM (inactive)"}, {"measurement": "GI50", "setting": "OVCAR-5", "result": "> 100 µM (inactive)"}, {"measurement": "GI50", "setting": "OVCAR-8", "result": "> 100 µM (inactive)"}, {"measurement": "GI50", "setting": "PC-3", "result": "> 100 µM (inactive)"}, {"measurement": "GI50", "setting": "RXF 393", "result": "> 100 µM (inactive)"}, {"measurement": "GI50", "setting": "SF-268", "result": "94.2 µM (inactive)"}, {"measurement": "GI50", "setting": "SF-295", "result": "30.8 µM (inactive)"}, {"measurement": "GI50", "setting": "SK-MEL-28", "result": "> 100 µM (inactive)"}, {"measurement": "GI50", "setting": "SK-MEL-5", "result": "> 100 µM (inactive)"}, {"measurement": "GI50", "setting": "SK-OV-3", "result": "> 100 µM (inactive)"}, {"measurement": "GI50", "setting": "SN12C", "result": "> 100 µM (inactive)"}, {"measurement": "GI50", "setting": "SNB-19", "result": "> 100 µM (inactive)"}, {"measurement": "GI50", "setting": "SNB-75", "result": "> 100 µM (inactive)"}, {"measurement": "GI50", "setting": "SR", "result": "49.7 µM (inactive)"}, {"measurement": "GI50", "setting": "SW-620", "result": "69.3 µM (inactive)"}, {"measurement": "GI50", "setting": "T47D", "result": "60.1 µM (inactive)"}, {"measurement": "GI50", "setting": "TK-10", "result": "65.5 µM (inactive)"}, {"measurement": "GI50", "setting": "U-251", "result": "70.3 µM (inactive)"}, {"measurement": "GI50", "setting": "UACC-257", "result": "> 100 µM (inactive)"}, {"measurement": "GI50", "setting": "UACC-62", "result": "92 µM (inactive)"}, {"measurement": "GI50", "setting": "UO-31", "result": "> 100 µM (inactive)"}]}]}
